Data taken from article PMC6222857, “Synthesis and Preliminary Evaluation of Biological Activity of Glycoconjugates Analogues of Acyclic Uridine Derivatives” (Molecules : A Journal of Synthetic Chemistry and Natural …, 2018).

Target: T1, β-1,4-galactosyltransferase I (β4GalT) from bovine milk (Bos taurus, UniProt P08037)
T1 construct: gene B4GALT1
T1 sequence (P08037 1-402): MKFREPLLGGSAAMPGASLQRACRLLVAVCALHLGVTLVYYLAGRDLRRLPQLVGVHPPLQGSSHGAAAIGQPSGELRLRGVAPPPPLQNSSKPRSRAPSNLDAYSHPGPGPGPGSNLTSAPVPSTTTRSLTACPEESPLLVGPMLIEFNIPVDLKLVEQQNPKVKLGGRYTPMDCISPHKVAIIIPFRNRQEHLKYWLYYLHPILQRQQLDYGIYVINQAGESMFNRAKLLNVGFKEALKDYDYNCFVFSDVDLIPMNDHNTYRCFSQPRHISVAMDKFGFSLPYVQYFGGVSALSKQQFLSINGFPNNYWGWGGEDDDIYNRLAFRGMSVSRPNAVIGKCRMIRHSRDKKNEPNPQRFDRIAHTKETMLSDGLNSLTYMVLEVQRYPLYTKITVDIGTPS
Test: RP-HPLC enzymatic assay with fluorescence detection: galactose transfer from UDP-Gal to esculine
Type: biochemical

IC50: 710 µM
Structure (SMILES): O=C(CCOCn1ccc(=O)[nH]c1=O)Nc1ccc(S[C@@H]2O[C@H](CO)[C@@H](O)[C@H](O)[C@H]2O)nc1 [compound 64, Glycoconjugate 64]
